{
  "source": "patent US20210163929A1",
  "about": "“METHODS AND COMPOSITIONS FOR THE TREATMENT OF HEPATIC AND METABOLIC DISEASES” (The Regents of the University of California, priority 2018, published 2021)",
  "key": {"[1]": {"system": "miR-22 in HCT116 cells", "experiment": "miR-22 induction in HCT116 cells treated with bile acids or HDAC inhibitors", "format": "cell-based, human", "details": "24 hours, CDCA 50, 100, 150 μM, OCA 25 and 50 μM"}, "[2]": {"system": "Western diet-induced obese C57BL/6 male mice", "experiment": "WD-induced obese mice treated with OCA, miR-22 inhibitors or both for 3 weeks", "format": "in vivo, mouse", "experimental": "Mice: C57BL/6 wild-type (WT) male mice (Charles River Laboratories, Inc., Wilmington, Mass., USA) were housed in regular filter-top cages at 22° C. with a 12 h/12 h light/dark cycle. For Western diet (WD)-induced obesity models, mice were fed a WD (21% fat, 34% sucrose, and 0.2% cholesterol, w/w) or control diet (CD 5% fat, 12% sucrose, and 0.01% cholesterol, w/w; Harlan Teklad, Indianapolis, Ind., USA) after weaning (3 weeks). When those mice were 7-months old, WD-fed mice were randomly assigned to […] and received vehicle (0.5% carboxyl methyl cellulose sodium), OCA ([…], daily, oral gavage), miR-22 inhibitors (1×10^9 PFU, tail vein injection, once a week), and the combination of OCA and miR-22 inhibitors for three weeks. For alcohol-induced steatosis models, 3-month-old C57BL/6 male mice were initially fed a control Lieber-DeCarli diet (F1259SP, Bio-Serv, Flemington, N.J., USA) ad libitum for 5 days followed by 5% alcohol supplementation for 21 days (F1258SP, Bio-Serv). Then, those alcohol-fed mice received adenovirus (negative control) or miR-22 inhibitors (1×10^9 PFU, tail vein injection, 3 times in 10 days). All the mice were euthanized 1 day after the last viral injection. Animal experiments were conducted in accordance with the National Institutes of Health Guide for the Care and Use of Laboratory Animals under protocols approved by the Institutional Animal Care and Use Committee of the University of California, Davis.\nBiochemical analysis: Hepatic triglyceride and cholesterol (BioAssay Systems, Hayward, Calif., USA) levels and serum lipopolysaccharide (LPS) (Thermo Fisher Scientific), alanine transaminase (ALT) (Pointe Scientific), and alkaline phosphatase (ALP) (Pointe Scientific) levels were quantified according to the manufacturer's instructions.\nInsulin tolerance test: After 6 h food deprivation, tail vein blood was used to establish fasting blood glucose levels. For insulin tolerance testing, insulin (1 U/kg body weight, i.p.; MilliporeSigma, Burlington, Mass., USA) was given followed by measuring blood glucose level at various times with the OneTouch Ultra 2 (Johnson & Johnson Co., New Brunswick, N.J., USA). The area under the curve (AUC) of the blood glucose levels over time was calculated.\nSerum FGF21 and glucagon-like peptide (GLP-1) secretion assay: Serum FGF21 levels were quantified by ELISA (Boster Biological Technology, Pleasanton, Calif., USA). For GLP-1 secretion assays, mice were unfed for 12 h followed by orally administration of dipeptidyl peptidase-4 inhibitor, sitagliptin ([…]; TSZ Chem, Framingham, Mass., USA) and a liquid diet (Ensure Plus, […]; Ross Laboratories, Columbus, Ohio, USA), which contains 15% protein, 57% carbohydrate, and 28% fat to stimulate GLP-1 secretion, as previously described (25). Blood samples were collected immediately (time 0) as well as 15, and 30 min after Ensure Plus feeding. Serum GLP-1 was quantified by a ELISA kit (RayBiotech Life, Norcross, Ga., USA)."}, "[3]": {"system": "FGF21 signaling and miR-22 in Huh7 cells", "experiment": "mRNA and protein levels in Huh7 cells treated with OCA/INT-747, CDCA, butyrate or RA plus butyrate", "format": "cell-based, human", "details": "for mRNA and protein levels of FGF21, FGFR1 and PGC1α: OCA 5 or 20 μM", "experimental": "(§1) Cell culture: Huh7 cells were obtained from Japanese Collection of Research Bioresources and maintained in DMEM with 10% FBS. Cells were treated with DMSO, OCA (5 or 20 μM; Apexbio Technology LLC, Houston, Tex., USA) in serum-free media for indicated time. Cells were plated (1×10^6 cells per 60-mm dish, 2×10^5 cells per 6-well plates, and 1×10^5 cells per 24-well plates) overnight prior to treatment or infection.\nGene expression quantification: Total RNA was extracted using TRIzol Reagent (Thermo Fisher Scientific, Waltham, Mass., USA), and cDNA was generated using High Capacity RNA-to-cDNA Kit (Applied Biosysterms, Carlsbad, Calif., USA). qRT-PCR was performed on ABI 7900HT Fast Real-time PCR system using Power SYBR® Green PCR Master Mix (Applied Biosysterms).\n(§2) Western blot: Western blot was performed as described previously (26). Antibodies used were anti-FGFR1, FGF21, FASN, phosphor (P)-AMPK, total (T)-AMPK, phosphor (P)-ERK1/2, and total (T)-ERK1/2 (Cell Signaling Technology, Beverly, Mass., USA), β-ACTIN (MilliporeSigma), CD36 (Bioss Antibodies Inc., Woburn, Mass., USA), CYCLIN A2, PGC1α (Novus Biologicals, LLC, Littleton, Colo., USA), and PPARα (Santa Cruz Biotechnology, Santa Cruz, Calif., USA)."}, "[4]": {"system": "hepatic inflammation and fibrosis", "details": "30 mg/kg/day, gavage, every 2 days for 4 weeks; cited from earlier work"}, "[5]": {"system": "patients with NASH and T2DM", "details": "cited from earlier work"}, "[6]": {"system": "miR-22 in HCT116 cells", "experiment": "miR-22 induction in HCT116 cells treated with bile acids or HDAC inhibitors", "format": "cell-based, human", "experimental": "A time course study in which HCT116 cells were treated by 150 μM CDCA for indicated times. […] Data are presented as mean+/−S.D. * denotes p<0.05.\nData are shown as mean+/−S.D. * p<0.05; ** p<0.01; ***p<0.001.\nOCA is a semi-synthetic bile acid, which as the structure of 6α-ethyl-chenodeoxycholic acid."}, "[7]": {"system": "FGF21 signaling in Huh7 cells", "experiment": "Huh7 cells infected/transfected with miR-22 or miR-22 inhibitors, mRNA and Western blot", "format": "cell-based, human", "details": "adenovirus control or miR-22 inhibitors followed by DMSO or OCA 5 μM for 6 h", "from_the_text": "However, miR-22 was induced in the livers and adipose tissues of WD-fed mice (FIG. 15B). Similarly, using human liver biopsy specimens, miR-22 levels were positively associated with hepatic fat content and inversely correlated with the mRNA levels of PGC-1α, a key regulator of mitochondrial biogenesis (FIG. 15C). […] To study the downstream effects of miR-22, miR-22 mimics (ID: MIMAT0000077, […] (SEQ ID NO:2), Applied Biological Materials Inc.) were used to transfect human liver Huh7 cells.\nas §1\nConstructs and luciferase reporter assay: The 3′ untranslated region (3′-UTR) of the FGFR1 gene containing the putative binding site for miR-22 and the entire 3′-UTR of the FGF21 gene (105 bp) was cloned into the psiCHECK2 vector (Promega, Madison, Wis., USA) using NotI and XhoI. For cell infection, adenovirus (negative control), adenoviral-delivered miR-22 (miR-22), or adenoviral-miR-22 inhibitors (SEQ ID NO:1; Applied Biological Materials Inc., Richmond, BC) were used. Forty-eight h post infection, cells were transfected with psiCHECK2-FGR1-3′UTR or psiCHECK2-FGF21 3′UTR using Lipofectamine 2000 (Thermo Fisher Scientific). Twenty-four h later, cells were harvested for firefly and Renilla luciferase assay using the Dual-luciferase Reporter system (Promega). Renilla luciferase activity was standardized to firefly luciferase activity.\nas §2"}},
  "note": "“Also recorded” adds a separate entry of the source.",
  "data": [
    {"smiles": "CC[C@H]1[C@@H](O)[C@@H]2[C@H](CC[C@]3(C)[C@@H]([C@H](C)CCC(=O)O)CC[C@@H]23)[C@@]2(C)CC[C@@H](O)C[C@@H]12", "note": "[OCA, obeticholic acid]", "values": [
      {"measurement": "miR-22 level", "setting": "[1]", "value": "induced miR-22"},
      {"measurement": "hepatic fat accumulation (steatosis score)", "setting": "[2]; WD-fed 7-month-old mice, 3 weeks, OCA 10 mg/g body weight daily oral gavage, miR-22 inhibitors 1×10^9 PFU once a week", "value": "reduced hepatic fat accumulation"},
      {"measurement": "hepatic cholesterol level", "setting": "[2]; WD-fed mice, 3 weeks treatment", "value": "reduced hepatic cholesterol level"},
      {"measurement": "hepatic triglyceride levels", "setting": "[2]; WD-fed mice, 3 weeks treatment", "value": "did not significantly reduce hepatic triglyceride levels"},
      {"measurement": "release of GLP-1 (serum)", "setting": "[2]; WD-fed mice, 3 weeks treatment", "value": "stimulated the release of GLP-1"},
      {"measurement": "serum FGF21 level", "setting": "[2]; WD-fed mice, 3 weeks treatment", "value": "reduced"},
      {"measurement": "hepatic FASN and CD36", "setting": "[2]; diet-induced obese mice", "value": "reduced FASN and CD36"},
      {"measurement": "hepatic FGF21 and FGFR1", "setting": "[2]; diet-induced obese mice", "value": "induced hepatic FGF21 and FGFR1"},
      {"measurement": "expression of hepatic Pepck, G6pase, and Fbp1", "setting": "[2]; reduced by WD intake", "value": "reversed those reductions"},
      {"measurement": "miR-22 level", "setting": "[3]; 6 h", "value": "induced miR-22"},
      {"measurement": "AMPK and ERK1/2 activation", "setting": "[3]; 6 hours", "value": "activated AMPK and ERK1/2"},
      {"measurement": "βKlotho protein level", "setting": "[3]; 6 hours", "value": "modestly increased"},
      {"measurement": "mRNA and protein levels of FGF21, FGFR1 and PGC1α", "setting": "[3]; 6 hours", "value": "induced FGF21 signaling by increasing the expression of FGF21, FGF21 receptor (FGFR1), and PGC1α; also recorded: increased mRNA and protein levels of FGF21 and FGFR1 as well as PGC1α"},
      {"measurement": "mRNA and protein levels of FGF21, FGFR1 and PGC1α", "setting": "[3]; 6 hours, listed as INT-747", "value": "markedly increased the mRNA and protein level of FGF21 and FGFR1"},
      {"measurement": "hepatic inflammation and fibrosis", "setting": "[4]", "value": "reduces hepatic inflammation and fibrosis"},
      {"measurement": "patients with fibrosis having ≥1 stage of fibrosis improvement", "setting": "[5]; clinical trials, 19% in the placebo group, p<0.05", "value": 41, "unit": "%"},
      {"measurement": "patients reaching the primary endpoint of a ≥2-point improvement in NAFLD activity score without worsening fibrosis", "setting": "[5]; clinical trials, 21% in the placebo group, p<0.01", "value": 57, "unit": "%"},
      {"measurement": "insulin sensitivity", "setting": "[5]; clinical trials", "value": "improves insulin sensitivity"},
      {"measurement": "markers of liver inflammation and fibrosis", "setting": "[5]; clinical trials", "value": "reduced markers of liver inflammation and fibrosis"},
      {"measurement": "deaths and liver injury", "setting": "[5]; overdose", "value": "caused deaths and liver injury"},
      {"measurement": "CCNA2 expression", "setting": "[6]", "value": "reduced CCNA2"},
      {"measurement": "FXR target FGF19 expression", "setting": "[6]", "value": "induced FXR target FGF19"},
      {"measurement": "FGF21, FGFR1, P-AMPK, and P-ERK1/2 protein levels", "setting": "[7]", "value": "same effects in increasing FGF21, FGFR1, P-AMPK, and P-ERK1/2"}
    ]}
  ]
}
